Measurements taken from patent publication US6387906B1, “2,4,4-trisubstituted-1,3-dioxolane antifungals” (priority 1997, dated 2002).

Columns and labels:
Candida kefyr = assay: Measurement of antifungal activity in vitro (lowest active dose) vs. Candida kefyr; type: cell-based; conditions: lowest concentration inhibiting growth below 35% of control growth; CYG broth, 37° C. for 48 h, turbidimetry
Description: (§1) Test compounds were dissolved at a concentration of 10^−2 M in dimethyl sulfoxide (DMSO) and diluted into CYG broth (Odds, F. C. Antimicrobial Agents and Chemotherapy 1992; 36: 1727-1737) to give a final concentration of 25 μM and, in most tests, 5 μM. For some compounds the tests were done at 100, 10, 1.0 and 0.1 μM. Cultures were inoculated with Candida.kefyr to an initial concentration of 10^4/ml and with Trichophyton rubrum to an equivalent concentration determined by turbidimetry. Cultures were incubated in the wells of microdilution plates at 37° C. for 48 h (C. kefyr) and at 30° C. for 5-7 days (T. rubrum). Growth in wells containing test compounds was estimated turbidimetrically as a percentage of growth in compound-free controls and the lowest concentration of compound that inhibited the growth of an isolate below 35% of control growth was recorded as the lowest active dose (LAD).

Trichophyton rubrum = assay: Measurement of antifungal activity in vitro (lowest active dose) vs. Trichophyton rubrum; type: cell-based; conditions: lowest concentration inhibiting growth below 35% of control growth; CYG broth, 30° C. for 5-7 days, turbidimetry
Description: as §1

melting point: 177.8 °C
Compound: CC(C)N1CCN(c2ccc(N3CCN(c4ccc(OC[C@H]5OC[C@](Cn6cncn6)(c6ccc(F)cc6F)O5)cc4)CC3)cc2)C1=O [Compound 51, (2S-cis)-1-[4-[4-[4-[[4-(2,4-difluorophenyl)-4-(1H-1,2,4-triazol-1-ylmethyl)-1,3-dioxolan-2-yl]methoxy]phenyl]-1-piperazinyl]phenyl]-3-(1-methylethyl)-2-imidazolidinone]
LAD (μM) vs. C. keyr (Candida kefyr): ≦0.1 μM
LAD (μM) vs. T. rubrum (Trichophyton rubrum): ≦0.1 μM
